Data: ChEMBL document CHEMBL1201862, “PubChem BioAssay data set” (2004)
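Tested at 5 concentrations; 48 h exposure; 96-well plates; endpoints linearly interpolated, else capped at highest concentration. GI50 = concentration required for 50% inhibition of growth.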 Activity calls are given as the source filed them. No stated cut-off is given here; in the data, active = GI50 up to about 1.1 µM and inactive = higher.

How the values were obtained:
Assay in all cases: NCI-60 cell line screen, 48 h
[1] = system: MOLT-4
[2] = system: Hs-578T
[3] = system: MDA-MB-231
[4] = system: IGROV-1
[5] = system: Malme-3M
[6] = system: OVCAR-4
[7] = system: CAKI-1
[8] = system: SK-MEL-2
[9] = system: NCI/ADR-RES
[10] = system: SF-268
[11] = system: DU-145
[12] = system: EKVX
[13] = system: SK-OV-3
[14] = system: NCI-H23
[15] = system: BT-549
[16] = system: UACC-62
[17] = system: SK-MEL-28
[18] = system: MDA-N
[19] = system: SNB-19
[20] = system: PC-3
[21] = system: RPMI-8226
[22] = system: OVCAR-5
[23] = system: OVCAR-3
[24] = system: M14
[25] = system: HCT-116
[26] = system: MDA-MB-435
[27] = system: UACC-257
[28] = system: RXF 393
[29] = system: SW-620
[30] = system: U-251
[31] = system: CCRF-CEM
[32] = system: KM12
[33] = system: HOP-92
[34] = system: SK-MEL-5
[35] = system: OVCAR-8
[36] = system: A549
[37] = system: A498
[38] = system: MCF7
[39] = system: HT-29
[40] = system: HCT-15
[41] = system: NCI-H522
[42] = system: 786-0
[43] = system: TK-10
[44] = system: K562
[45] = system: UO-31
[46] = system: HOP-62
[47] = system: ACHN
[48] = system: SNB-75
[49] = system: COLO 205
[50] = system: HCC 2998
[51] = system: SF-295
[52] = system: NCI-H460
[53] = system: SR

Measured: GI50

CCOC(=O)c1cc(C2CCN(Cc3ccccc3)C2=S)c(C(=O)C=[N+]=[N-])[nH]1 (stereo unspecified)
inactive: [1] 30.4 µM | [2] 45.6 µM | [3] 33.1 µM | [4] 24.7 µM | [5] 28.7 µM | [6] 54.7 µM | [7] 68.5 µM | [8] 21.2 µM | [9] 24.5 µM | [10] 25.8 µM | [11] 33.4 µM | [12] 26.7 µM | [13] > 100 µM | [14] 21.7 µM | [15] 26.9 µM | [16] 18.3 µM | [17] 26 µM | [18] 21.1 µM | [19] 28.8 µM | [20] 27.4 µM | [21] 45.9 µM | [22] 30.3 µM | [23] 17.5 µM | [24] 20.1 µM | [25] 40.5 µM | [26] 40.1 µM | [27] 25.8 µM | [28] 31 µM | [29] 38.6 µM | [30] 25.3 µM | [31] 13.4 µM | [32] 55.5 µM | [33] 21.3 µM | [34] 19.3 µM | [35] 37.3 µM | [36] 26.4 µM | [37] 77.4 µM | [38] 14.6 µM | [39] 31.5 µM | [41] 20.7 µM | [42] 28.1 µM | [43] 35.9 µM | [44] 64.6 µM | [45] 18.8 µM | [46] 51.4 µM | [47] 27.2 µM | [48] 29.4 µM | [49] 33.8 µM | [50] 49.7 µM | [51] 20.5 µM | [52] 23.9 µM
19.5 µM: [40]

N=C(N)SCCc1ccccn1
inactive: [2] > 100 µM | [3] 55.2 µM | [7] > 100 µM | [9] > 100 µM | [11] > 100 µM | [12] 89.3 µM | [15] > 100 µM | [18] > 100 µM | [20] > 100 µM | [26] > 100 µM | [53] > 100 µM | [27] > 100 µM | [30] 51.2 µM | [38] > 100 µM | [39] > 100 µM | [43] > 100 µM | [44] > 100 µM | [50] > 100 µM | [51] > 100 µM
